Source: patent US11725204B2, “Multiplex genome engineering in eukaryotes” (priority 2016, dated 2023)

Legend:
Assay type in all cases: cell-based, S. cerevisiae
ADE2 [1] = test: eMAGE allelic replacement frequency at Ori-URA3-ADE2 locus (5-FOA selection, red/white screening)
Description: A list of ssODNs used for FIGS. 1-4 in this study can be found in Table 2. For eMAGE experiments, a single colony was inoculated in 2 mL CSM-Ura medium and grown overnight to saturation. The next day the culture was diluted 1:50 in 10 mL of CSM-Ura and grown for 6 hours prior to electroporation. The ssODN concentration and size were determined from optimization experiments performed in Figure S2D,F. A total of 20 uM of 90nt ssODNs consisting of 50% selection ssODN 50% target ssODN(s) was used for eMAGE transformations. The optimal HU concentration was determined from figure S2A. The eMAGE pretreatment mixture contained 500 mM HU in TE pH 8/500 mM Lithium Acetate/25 mM DTT. Electroporation for eMAGE was performed exactly as described above. After 12 hours of recovery, ˜10^5 cells were plated on 5-FOA selection plates for msh2Δ and MMR mutant strains and ˜10^7 cells were plated for strains with WT MMR. The resultant 5-FOA plates contained ˜100 colonies which were subject to screening for target ssODN incorporation. The indicated ARF values represent mean+/−SD. All data sets were collected in triplicate. For the Rad51 chemical inhibitor experiment (Figure S1J) the recovery medium was supplemented with inhibitor RI-1 (Abcam ab144558)+1.5% DMSO for solubility.
Experiments were designed to determine if Rad51-dependent ssODN recombination and incorporation of ssODNs at the DNA replication fork are two distinct pathways in eukaryotes (FIG. 1A). Unlike the E. coli chromosome, the linear chromosomes of S. cerevisiae contain multiple firing origins of replication that confound the precise designation of the lagging strand at each locus (Raghuraman, et al., Science, 294:115-121 (2001); Wyrick, et al., Science, 294:2357-2360 (2001)). Sherman and colleagues observed high frequencies of co-transformation for two ssODNs targeted within a cyc1 mutant gene when one of the ssODNs included a selectable mutation (Yamamoto, et al., Yeast, 8:935-948 (1992a)). […] Experiments were designed to determine whether Sherman's observation could be expanded for ssODNs targeting multiple proximal genes by constructing an experimental locus on chromosome XV with a defined DNA replication direction by placing the URA3 gene proximal to the origin ARS1516 (Ori) directly adjacent to ADE2, which confers a colorimetric phenotype (WT=white; Mutant=red) (FIG. 1C). Cells were transformed with ssODNs targeting the predicted lagging strand of both URA3 and ADE2, and it was observed that ssODN-derived modifications at ADE2 were increased by >10^4-fold (ARF=22%) in URA3-edited (5-FOA resistant) clones (FIG. 1C). […]

[2] = test system: target sites at increasing distances from the URA3 marker; test: Target distance efficiency determination (red/white screening or colony PCR with EcoRI digestion); conditions: +HU
Description: Target mutation distance is reported as the distance between the URA3 marker mutation incorporated by the selection-ssODN and the mutation incorporated by the target-ssODN. For target distances of 1 and 2 kb, ssODNs ADE290RC and ADE2_Mult10 were used within the ADE2 gene and the ARFs for these sites were determined by red/white phenotype screening. For targets at 5, 10, 15, and 20 kb distances from the Ori-URA3, target sites were chosen that differ by only a single base-pair from an EcoRI restriction site. The target ssODN was designed to incorporate a base-pair change to create the EcoRI restriction site. For each target assayed, 96 clones were analyzed by colony PCR (Primers for the amplicons analyzed are listed in Table 3) coupled to EcoRI (NEB) digestion of the amplicon for 1 hr at 37° C. The percentage of amplicons cut vs. uncut is represented as the ARF for each distance site. Each distance experiment was performed in triplicate+/−HU treatment. ARF values represent mean+/−SD.

ADE2 [3] = test: Multiplex incorporation of ssODNs and cycling (colony PCR and Sanger sequencing); conditions: 10-target multiplexing, with HU
Description: For multiplex eMAGE experiments targeting ADE2, red clones that grew on 5-FOA plates were assayed via yeast colony PCR and Sanger sequencing (Genewiz). Insertions were chosen for easy sequence detection since degenerate mismatches would contain WT sequence positions. For cycling experiments, cells were recovered in recovery media after electroporation as described above. After recovery, the population was subjected to liquid selection in 5-FOA for odd cycles and CSM-Ura for even numbered cycles to enrich for edited clones. Selections were performed for 500 uL of recovery culture seeded into 50 mL of selection medium and grown to saturation at 30° C. (˜2 days).
After the first 1:100 selection the population was diluted 1:50 in selection media and grown for 6 hours for the next electroporation step. The process was repeated for 3 cycles. A total of 100 red clones were sequenced after each cycle. For cycles 1 and 2, 200 unique genotypes were observed out of […], but for cycle 3, 76 unique genotypes were observed out of the 100 clones sequenced. Given that the degeneracy of the ssODN pool largely out-scales the number of clones assayed redundant genotypes would not be expected to arise for independent clones in any cycle assayed. The 24 redundant clones observed in cycle 3 were comprised of 5 genotypes. […]

URA3 = test: Spontaneous URA3 mutations with transient HU treatment
Description: Experiments were designed to determine if transient treatment with HU would increase the efficiency for ssODN annealing at the replication fork. A 30 minute treatment with 500 mM HU increased the ARF by ˜two-fold compared to the untreated condition. Seven different ssODNs containing a single base-pair mismatch (ssODNs 1,2,5-7), insertion (ssODN #4), or deletion (ssODN #3) in ADE2 were tested and an average ARF increase of 56% (FIG. 2A) was observed. […] The effect of ssODN size and concentration was also tested. Robust cell survival post electroporation (85%) was tested for ssODN concentrations up to 20 uM, which decreased to 45% at 80 uM ssODN. The efficiency of URA3 single-plex targeting increased with increasing ssODN size and concentration with the highest ARF observed (0.08%) for 100nt ssODN at 60 uM. For coupled ADE2-URA3 targeting an optimum ade2 mutant per 5-FOA CFU was determined using a 90nt ssODN at 20 uM. For all subsequent experiments 90nt ssODNs at 20 uM were used.

| Compound | increase of ARF compared to the untreated condition (ADE2 [1]; 30 minute treatment with 500 mM HU) | HU effect on ARF with HIS3 selection marker (ADE2 [1]; HIS3 selection marker in replace of URA3) | average ARF increase (ADE2 [1]; HU treatment, seven ssODNs with single base-pair mismatch, insertion or deletion in ADE2) [%] | ARF vs target distance curve fit, Y0 ([2]; one-phase decay Y=(Y0−Z)*exp(−K*X)+Z) | ARF vs target distance curve fit, K ([2]; one-phase decay fit) | ARF vs target distance curve fit, Z ([2]; one-phase decay fit) | multiplex enhancement of ssODN incorporation (ADE2 [3]; WT) | mean number of ssODNs incorporated (ADE2 [3]; msh2Δ) [per clone] | spontaneous URA3 mutations (URA3) | ARF change with Rad51 inhibitor (ADE2 [1]; recovery medium supplemented with RI-1 + 1.5% DMSO) |
| --- | --- | --- | --- | --- | --- | --- | --- | --- | --- | --- |
| NC(=O)NO [HU, Hydroxyurea] | two-fold | HU effect was also observed | 56 | 49.6 | 0.279 | 2.25 | no multiplex enhancement | 3.4 | no significant increase |  |
| O=C1C(Cl)=C(N2CCOCC2)C(=O)N1c1ccc(Cl)c(Cl)c1 [RI-1] |  |  |  |  |  |  |  |  |  | ARF enhancement was observed |
